Patent US8722070B2, “Active compound combinations having insecticidal and acaricidal properties” (Bayer CropScience AG, priority 2000, dated 2014)

How the values were obtained:
[1] = system: cotton aphid (Aphis gossypii); assay: Aphis gossypii test (cotton leaves dipped into the preparation of active compound); type: in vivo; conditions: individual active compound, 1.6 ppm, cotton leaves (Gossypium hirsutum)
Text: (§1) The expected action for a given combination of two active compounds can be calculated as follows, using the formula of S. R. Colby, Weeds 15 (1967), 20-22):
(§2) • X is the kill rate, expressed as a percentage of the untreated control, when employing active compound A at an application rate of m g/ha or in a concentration of m ppm, • Y is the kilt rate, expressed as a percentage of the untreated control, when employing active compound B at an application rate of n g/ha or in a concentration of n ppm and • E is the kill rate, expressed as a percentage of the untreated control, when employing active compounds A and B at application rates of m and n g/ha or in a concentration of m and n ppm, then
(§3) If the actual insecticidal kill rate exceeds the calculated value, the action of the combination is superadditive, i.e. a synergistic effect is present. In this case, the actually observed kill rate must exceed the value calculated using the above formula for the expected kill rate (E).
(§4) After the desired period of time, the kill rate in % is determined. 100% means that all the animals have been killed; 0% means that none of the animals has been killed.
(§5) Solvent: 3 parts by weight of dimethylformamide
(§6) Emulsifier: 1 part by weight of alkylaryl polyglycol ether […]
After the desired period of time, the kill in % is determined. […] The kill rates that are determined are calculated using Colby formula.

[2] = system: peach aphid (Myzus persicae); assay: Myzus test (cabbage leaves dipped into the preparation of active compound); type: in vivo; conditions: individual active compound, 1.6 ppm, cabbage leaves (Brassica oleracea)
Text: as §1, §2, §3, §4, §5, §6
After the desired period of time, the kill in % is determined. […] The kill rates determined are calculated using Colby's formula.

Structure (SMILES): CC1(C)C(C=C(Cl)Cl)C1C(=O)OC(C#N)c1ccc(F)c(Oc2ccccc2)c1 (centres unmarked) [cyfluthrin, Cyfluthrin]
- Kill rates in % after 6d [1]: 75%
- Kill rates in % after 1d [2]: 25%
